For this assay, the target named is T1, non-Cathepsin L-processed, but self-cleaved enzyme (LyLAP) (Homo sapiens, UniProt Q6P4A8).
T1 sequence (Q6P4A8 39-227): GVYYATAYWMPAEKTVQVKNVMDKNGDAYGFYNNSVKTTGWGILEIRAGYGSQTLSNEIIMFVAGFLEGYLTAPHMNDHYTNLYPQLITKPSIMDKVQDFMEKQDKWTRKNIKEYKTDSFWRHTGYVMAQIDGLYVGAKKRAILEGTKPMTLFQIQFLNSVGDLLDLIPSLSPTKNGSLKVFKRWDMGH
T1 sequence (Q6P4A8 228-553): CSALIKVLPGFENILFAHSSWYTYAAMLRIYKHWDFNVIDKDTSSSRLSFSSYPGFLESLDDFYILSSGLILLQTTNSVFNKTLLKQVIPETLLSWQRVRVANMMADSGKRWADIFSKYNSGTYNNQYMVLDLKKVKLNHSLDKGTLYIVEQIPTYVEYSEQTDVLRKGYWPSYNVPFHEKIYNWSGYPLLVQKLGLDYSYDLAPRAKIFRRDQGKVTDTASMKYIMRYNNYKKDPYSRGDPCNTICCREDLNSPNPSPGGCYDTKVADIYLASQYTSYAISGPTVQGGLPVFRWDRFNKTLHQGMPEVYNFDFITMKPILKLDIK
Description: fluorogenic AMC release. In kind it is biochemical. The settings on record: lysosomal pH buffer pH 4.5, 37°C; without cathepsin L preactivation.

Turning to `Cc1cc(=O)oc2cc(NC(=O)[C@@H](N)CC(C)C)ccc12` [Leu-AMC, L-Leucine-7-amido-4-methylcoumarin], the “fluorogenic AMC release” value is recorded as “increased catalysis toward single amino acid substrates and, more substantially, toward tripeptide substrates”.
